Data: PubChem BioAssay (NCI)
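The compound was tested at five concentrations on cells cultured in 96-well plates, with a 48-hour exposure period. TGI marks complete inhibition of growth.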

What was measured:
Assay in all cases: DTP human tumour cell line panel, 48 h
786-0 renal = system: 786-0 renal
A498 renal = system: A498 renal
A549 NSCLC = system: A549 NSCLC
ACHN renal = system: ACHN renal
CAKI-1 renal = system: CAKI-1 renal
CCRF-CEM leukemia = system: CCRF-CEM leukemia
COLO 205 colon = system: COLO 205 colon
DLD-1 colon = system: DLD-1 colon
DMS 114 small cell lung = system: DMS 114 small cell lung
DMS 273 small cell lung = system: DMS 273 small cell lung
HCC-2998 colon = system: HCC-2998 colon
HCT-116 colon = system: HCT-116 colon
HCT-15 colon = system: HCT-15 colon
HL-60(TB) leukemia = system: HL-60(TB) leukemia
HOP-18 NSCLC = system: HOP-18 NSCLC
HOP-62 NSCLC = system: HOP-62 NSCLC
HOP-92 NSCLC = system: HOP-92 NSCLC
HT29 colon = system: HT29 colon
IGROV1 ovarian = system: IGROV1 ovarian
K-562 leukemia = system: K-562 leukemia
KM12 colon = system: KM12 colon
KM20L2 colon = system: KM20L2 colon
LOX IMVI melanoma = system: LOX IMVI melanoma
LXFL 529 NSCLC = system: LXFL 529 NSCLC
M14 melanoma = system: M14 melanoma
M19-MEL melanoma = system: M19-MEL melanoma
MALME-3M melanoma = system: MALME-3M melanoma
MOLT-4 leukemia = system: MOLT-4 leukemia
NCI-H460 lung = system: NCI-H460 lung
NCI-H522 lung = system: NCI-H522 lung
OVCAR-4 ovarian = system: OVCAR-4 ovarian
OVCAR-5 ovarian = system: OVCAR-5 ovarian
OVCAR-8 ovarian = system: OVCAR-8 ovarian
RPMI-8226 leukemia = system: RPMI-8226 leukemia
RXF 393 renal = system: RXF 393 renal
SF-268 CNS = system: SF-268 CNS
SF-295 CNS = system: SF-295 CNS
SF-539 CNS = system: SF-539 CNS
SK-MEL-2 melanoma = system: SK-MEL-2 melanoma
SK-MEL-5 melanoma = system: SK-MEL-5 melanoma
SK-OV-3 ovarian = system: SK-OV-3 ovarian
SN12C renal = system: SN12C renal
SNB-19 CNS = system: SNB-19 CNS
SNB-75 CNS = system: SNB-75 CNS
SNB-78 CNS = system: SNB-78 CNS
SR leukemia = system: SR leukemia
SW-620 colon = system: SW-620 colon
TK-10 renal = system: TK-10 renal
U251 CNS = system: U251 CNS
UACC-257 melanoma = system: UACC-257 melanoma
UACC-62 melanoma = system: UACC-62 melanoma
UO-31 renal = system: UO-31 renal
EKVX NSCLC = system: EKVX NSCLC
NCI-H23 lung = system: NCI-H23 lung
OVCAR-3 ovarian = system: OVCAR-3 ovarian
SK-MEL-28 melanoma = system: SK-MEL-28 melanoma
XF 498 CNS = system: XF 498 CNS

Measured: TGI

Cc1cc2c(c(N)c1C)C(=O)c1ccccc1C2=O
50.4 µM: HCT-116 colon
35.5 µM: UACC-62 melanoma
62.7 µM: 786-0 renal
93.1 µM: TK-10 renal
58.9 µM: HOP-92 NSCLC
86.6 µM: SF-295 CNS
33.1 µM: UO-31 renal
79 µM: A498 renal
96.6 µM: U251 CNS
31.5 µM: SF-539 CNS
41.4 µM: OVCAR-4 ovarian
55.3 µM: CAKI-1 renal
56 µM: HOP-18 NSCLC
49.2 µM: SK-OV-3 ovarian
39.8 µM: SNB-75 CNS
> 100 µM: A549 NSCLC | ACHN renal | CCRF-CEM leukemia | COLO 205 colon | DLD-1 colon | DMS 114 small cell lung | DMS 273 small cell lung | HCC-2998 colon | HCT-15 colon | HL-60(TB) leukemia | HT29 colon | IGROV1 ovarian | K-562 leukemia | KM12 colon | KM20L2 colon | LOX IMVI melanoma | LXFL 529 NSCLC | M14 melanoma | M19-MEL melanoma | MALME-3M melanoma | MOLT-4 leukemia | NCI-H460 lung | NCI-H522 lung | OVCAR-5 ovarian | OVCAR-8 ovarian | RPMI-8226 leukemia | RXF 393 renal | SF-268 CNS | SK-MEL-2 melanoma | SK-MEL-5 melanoma | SN12C renal | SNB-19 CNS | SNB-78 CNS | SR leukemia | SW-620 colon | UACC-257 melanoma
40 µM: HOP-62 NSCLC

Cn1c(=O)c2nc(N3CCCCC3)cnc2n(C)c1=O
> 100 µM: A498 renal | A549 NSCLC | ACHN renal | CAKI-1 renal | CCRF-CEM leukemia | COLO 205 colon | DLD-1 colon | EKVX NSCLC | HCC-2998 colon | HCT-116 colon | HCT-15 colon | HL-60(TB) leukemia | HOP-62 NSCLC | HOP-92 NSCLC | HT29 colon | IGROV1 ovarian | K-562 leukemia | KM12 colon | KM20L2 colon | LXFL 529 NSCLC | M14 melanoma | M19-MEL melanoma | MALME-3M melanoma | MOLT-4 leukemia | NCI-H23 lung | NCI-H460 lung | NCI-H522 lung | OVCAR-3 ovarian | OVCAR-4 ovarian | OVCAR-5 ovarian | OVCAR-8 ovarian | RPMI-8226 leukemia | SF-268 CNS | SF-295 CNS | SF-539 CNS | SK-MEL-28 melanoma | SK-MEL-5 melanoma | SK-OV-3 ovarian | SN12C renal | SNB-19 CNS | SNB-75 CNS | SR leukemia | SW-620 colon | TK-10 renal | U251 CNS | UACC-257 melanoma | UACC-62 melanoma | UO-31 renal | XF 498 CNS
